Like-named read-outs stand apart in the source and are kept apart here.
Assays:
ErbB2 protein [1] = assay: ErbB2 protein expression in glioma cells; format: cell-based
ErbB2 protein [2] = assay: ErbB2 protein expression in SKBr3 cells; format: cell-based, human
[3] = background statement; cited from earlier work
[4] = clinical trials, cited from earlier work
[5] = system: SKBr cells (human breast cancer cells); assay: Cell viability (MTS) drug combination assay, combination index, SKBr-3 cells; format: cell-based; details: combination with 17-AAG, CI<1 synergism
Procedure: Human colon adenocarcinoma cell line, DLD-1, and human breast adenocarcinoma cell line, SKBr-3, were obtained from American Type Culture Collection (manassas, VA). […] Other cytotoxic agents were purchased commercially from suppliers such as Sigma Chemical Co. (St. Louis, Mo.) and Sequoia Research Products (Oxford, UK). Cells were seeded in duplicate in 96-well microtiter plates at a density of 5,000 cells per well and allowed to attach overnight. […] Cell viability was determined using the MTS assay (Promega). […] Based on the IC50 values of each individual drug, combined drug treatment was designed at constant ratios of two drugs, i.e., equivalent to the ratio of their IC50. […] The drug was then added to the cells and incubated for 48 hours. […] Cell viability was determined by the MTS assay. Synergism, additivity or antagonism was determined by median effect analysis using the combination index (CI) calculated using Calcusyn (Biosoft, Cambridge, UK). […] The quantities [Dx]1 and [Dx]2 represent the concentrations of the first and second drug, respectively, that when used alone provide a response of x % in the assay. […] The “enhancing” effect of two drugs can also be determined.

[6] = system: DLD-1 cells (human colorectal cancer cells); assay: Cell viability (MTS) drug combination assay, combination index, DLD-1 cells; format: cell-based; details: combination with 17-AAG, CI<1 synergism
Procedure: Human colon adenocarcinoma cell line, DLD-1, and human breast adenocarcinoma cell line, SKBr-3, were obtained from American Type Culture Collection (manassas, VA). […] Other cytotoxic agents were purchased commercially from suppliers such as Sigma Chemical Co. (St. Louis, Mo.) and Sequoia Research Products (Oxford, UK). Cells were seeded in duplicate in 96-well microtiter plates at a density of 5,000 cells per well and allowed to attach overnight. […] Cell viability was determined using the MTS assay (Promega). […] Based on the IC50 values of each individual drug, combined drug treatment was designed at constant ratios of two drugs, i.e., equivalent to the ratio of their IC50. Two treatment schedules were used: In one schedule, the cells were exposed to 24 hours of 17-AAG or 17-DMAG. The drug was then added to the cells and incubated for 48 hours. […] Cell viability was determined by the MTS assay. Synergism, additivity or antagonism was determined by median effect analysis using the combination index (CI) calculated using Calcusyn (Biosoft, Cambridge, UK). […] The quantities [Dx]1 and [Dx]2 represent the concentrations of the first and second drug, respectively, that when used alone provide a response of x % in the assay. […] The “enhancing” effect of two drugs can also be determined.

[7] = 17-AAG Post-Administration (platinum complex 24 h, then 17-AAG 48 h)

## CO[C@H]1/C=C\C=C(/C)C(=O)NC2=CC(=O)C(NCCN(C)C)=C(C[C@@H](C)C[C@H](OC)[C@H](O)[C@@H](C)/C=C(\C)[C@@H]1OC(N)=O)C2=O [17-DMAG, 17-(2-dimethylaminoethyl)amino-17-desmethoxygeldanamycin]
ErbB2 protein [1]
  expression of ErbB2 protein: reduced the expression of ErbB2 protein
ErbB2 protein [2]
  expression of ErbB2 protein: reduced the expression of ErbB2 protein

## 17-(allylamino)-17-desmethoxygeldanamycin [17-AAG]
[3]
  hepatotoxicity: reduced hepatotoxicity
ErbB2 protein [1]
  expression of ErbB2 protein: reduced the expression of ErbB2 protein
[4]; daily x 5 schedule
  MTD: about 40 mg/m^2
[4]; once-weekly regimen
  MTD: about 308 mg/m^2
[4]; twice-weekly regimen
  MTD: about 220 mg/m^2
ErbB2 protein [2]
  expression of ErbB2 protein: reduced the expression of ErbB2 protein

## COC1=C2C[C@@H](C)C[C@H](OC)[C@H](O)[C@@H](C)/C=C(\C)[C@H](OC(N)=O)[C@@H](OC)/C=C\C=C(/C)C(=O)NC(=CC1=O)C2=O [geldanamycin, Geldanamycin]
[3]
  hepatotoxicity: unacceptable hepatotoxicity

## N.N.[Cl][Pt][Cl] [Cisplatin, cisplatin]
[5]; [7]
  CI value (combination index): Enhancement
[5]; 17-AAG Pre-Administration (17-AAG 24 h, then platinum complex 48 h)
  CI value (combination index): No Effect
[6]; [7]
  CI value (combination index): No Effect
[6]; 17-AAG Pre-Administration (17-AAG 24 h, then platinum complex 48 h), CI=1 additivity, CI>1 antagonism
  CI value (combination index): No Effect

Reference: patent publication US20050020556A1, “Method for treating diseases using HSP90-inhibiting agents in combination with platinum coordination complexes” (Kosan Biosciences, Inc., priority 2003, published 2005)
